Literature values, collected in patent publication US7642353B2, “Process of making crystalline aripiprazole” (Synthon BV, priority 2004, dated 2010).

Compound | water uptake (in 24 hours) | hygroscopicity (solid form, as taught by WO 03/26659)
O=C1CCc2ccc(OCCCCN3CCN(c4cccc(Cl)c4Cl)CC3)cc2N1 [Anhydrous Form B, 7-[4-[4-(2,3-dichlorophenyl)-1-piperazinyl]butoxy]-3,4-dihydrocarbostyril] | less than 0.4% | –
O=C1CCc2ccc(OCCCCN3CCN(c4cccc(Cl)c4Cl)CC3)cc2N1 [Type I aripiprazole, 7-[4-[4-(2,3-dichlorophenyl)-1-piperazinyl]butoxy]-3,4-dihydrocarbostyril] | – | significantly hygroscopic
